Assay [1] addresses T1, human 5-HT3A receptor N101A mutant (Homo sapiens, UniProt P46098, N123A).
T1 construct: expressed in transfected cells; host or cells: Xenopus oocytes injected with mutant mRNA
T1 sequence (P46098 24-478 N123A): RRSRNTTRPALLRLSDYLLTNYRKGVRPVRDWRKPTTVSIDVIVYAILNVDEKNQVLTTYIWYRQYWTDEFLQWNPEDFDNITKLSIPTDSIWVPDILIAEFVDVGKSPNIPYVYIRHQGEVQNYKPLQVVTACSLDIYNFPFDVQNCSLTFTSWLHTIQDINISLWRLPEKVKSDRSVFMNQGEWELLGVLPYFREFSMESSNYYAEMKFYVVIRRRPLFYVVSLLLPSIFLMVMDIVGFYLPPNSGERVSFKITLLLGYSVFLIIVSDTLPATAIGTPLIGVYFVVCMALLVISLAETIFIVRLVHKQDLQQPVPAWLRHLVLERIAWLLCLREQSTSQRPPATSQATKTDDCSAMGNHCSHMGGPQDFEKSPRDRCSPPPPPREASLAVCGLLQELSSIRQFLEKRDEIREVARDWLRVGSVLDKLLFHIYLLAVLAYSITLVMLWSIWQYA
Put plainly: Two-electrode voltage clamp, I5-HT inhibition, N101A mutant. It counts as cell-based. The procedure: Human 5-HT3A receptor cDNA was linearized using restriction enzyme XhoI. In vitro transcription was performed using an mMESSAGE mMACHINE T7 Transcription Kit (Thermo Fisher Scientific, Waltham, MA, USA). The final mRNA product was dissolved in 1X Diethyl Pyrocarbonate (RNase-free water) at a final concentration of 1 μg/μL and kept in a deep-freezer at −80 °C until used.
Xenopus oocytes were used in this study as cells for expression of human 5-HT3A receptor. All female frogs used in this experiment were obtained from the Korean Xenopus Resource Center for Research (KXRCR000001). […] Isolated oocytes were incubated with ND96 incubation buffer (96 mM NaCl, 2 mM KCl, 1 mM MgCl2, 1.8 mM CaCl2, 5 mM HEPES, 2.5 mM sodium pyruvate, and […], pH 7.4) at 18 °C until the experiment was performed. Human 5-HT3A receptor mRNA was injected into oocytes using a nanoinjector (Drummond Scientific, Broomall, PA, USA) with a mineral-filled 10 μL microdispenser (VWR, Piscataway, NJ, USA).
For the experiment, induced-inward current was converted to digital data with pClamp 10 software (Axon Instruments, Union City, CA, USA). All experiments were performed at room temperature using an oocyte clamp equipped with Digidata. The membrane holding potential was −80 mV.
The voltage relationship experiment for confirming the relationship between induce-inward current and voltage, the voltage was varied from −80 mV to +60 mV using a ramp protocol. Each microelectrode was filled with 3 M KCl having a resistance of 0.2 MΩ. Serotonin and KAE applied in the experiment were diluted in ND96 bath solution (96 mM NaCl, 2 mM KCl, 1 mM MgCl2, 1.8 mM CaCl2, and 5 mM HEPES, pH 7.5) to specified concentration. The rate of application of the reagent was 2 mL per minute. All recording data were analyzed using Clampfit 9.0 (Molecular Devices, San Jose, CA, USA). […]
All presented experiments were performed at least three times for scientific verification. […] Induced-inward current data were analyzed with SigmaPlot 10.0 software (Systat Software, Inc., San Jose, CA, USA).

For assay [2], the target named is T2, human 5-HT3A receptor D177A mutant (Homo sapiens, UniProt P46098, D199A).
T2 sequence (P46098 24-478 D199A): T1 sequence (P46098 24-478 N123A) with A100N, D176A
Put plainly: Two-electrode voltage clamp, I5-HT inhibition, D177A mutant. The assay is classed as cell-based. The note with it: −80 mV. A general note: Two-electrode voltage clamp holds a large cell at a set potential and records current.
Protocol: Xenopus oocytes were used in this study as cells for expression of human 5-HT3A receptor. All female frogs used in this experiment were obtained from the Korean Xenopus Resource Center for Research (KXRCR000001). […] Xenopus oocytes were extracted during ice incubation state and isolated as single oocytes using collagenase II (2 mg/mL) in OR2 buffer (82.5 mM NaCl, 2 mM KCl, 1 mM MgCl2, 5 mM HEPES, pH 7.4). Isolated oocytes were incubated with ND96 incubation buffer (96 mM NaCl, 2 mM KCl, 1 mM MgCl2, 1.8 mM CaCl2, 5 mM HEPES, 2.5 mM sodium pyruvate, and 50 mg/mL gentamycin, pH 7.4) at 18 °C until the experiment was performed. Human 5-HT3A receptor mRNA was injected into oocytes using a nanoinjector (Drummond Scientific, Broomall, PA, USA) with a mineral-filled 10 μL microdispenser (VWR, Piscataway, NJ, USA).
To confirm the KAE activity on the human 5-HT3A receptor, a two-electrode voltage clamp (OC-725C; Warner Instruments, Hamden, CT, USA) with a Digitata 1550A was used. For the experiment, induced-inward current was converted to digital data with pClamp 10 software (Axon Instruments, Union City, CA, USA). All experiments were performed at room temperature using an oocyte clamp equipped with Digidata. The membrane holding potential was −80 mV.
The voltage relationship experiment for confirming the relationship between induce-inward current and voltage, the voltage was varied from −80 mV to +60 mV using a ramp protocol. […] All recording data were analyzed using Clampfit 9.0 (Molecular Devices, San Jose, CA, USA). […]
All presented experiments were performed at least three times for scientific verification. […] Induced-inward current data were analyzed with SigmaPlot 10.0 software (Systat Software, Inc., San Jose, CA, USA). […]

Positions count from the first letter of the chain named.

With `O=c1c(O)c(-c2ccc(O)cc2)oc2cc(O)cc(O)c12` [KAE, kaempferol], the IC50 (usually the point on the concentration scale where inhibition reaches its midpoint) in assay [1] was found to be 56.4 ± 9.7 µM; in assay [2] (Table 1), 13.9 ± 4.2 µM. Besides, the Vmax in assay [1] (N101A, −80 mV) is reported as 83.7 ± 8.6%; in assay [2] (Table 1), 23.3 ± 13.4%. Moreover, the “n (Hill coefficient)” value in assay [1] (N101A, −80 mV) was determined as 1.1 ± 0.6; in assay [2], 1.3 ± 0.2.

Source of the values: PMC8745345, “Hydroxy Pentacyclic Triterpene Acid, Kaempferol, Inhibits the Human 5-Hydroxytryptamine Type 3A Receptor Activity” (International Journal of Molecular Sciences, 2022).
